Assays:
Format in all cases: cell-based, human
[1] = test system: MB231Br (breast cancer metastasis to brain); experiment: Drug screening of MB231Br tumor foci on OBSCs
[2] = test system: LN229 (established GBM line); experiment: Drug screening of LN229 tumor foci on OBSCs
Description: (§1) Tumor cells (0.17 μL, 25,000 cells) were seeded onto OBSCs 2h after slicing, with one tumor seeded in the center of each hemisphere for a total of two tumor foci per OBSC. BSM was changed 24h after slicing. Fluorescence images were taken 0 h, 24 h, and 96 h post-seeding for normalization of tumor size. Bioluminescence readouts were also taken at 0 h, 24 h, and 96 h post seeding for assessment of cell viability. Luciferin was added underneath the culture insert and allowed to incubate for 10 min before bioluminescence measurement on an AMI optical imaging system.
(§2) Tumor cells were seeded onto OBSCs 2h after slicing as described above. One day after tumor seeding, six concentrations of each drug were diluted in the media underneath each culture insert, or XRad was applied using an X-Rad 320 Precision X-ray machine (n = 4 tumor foci per concentration; n ≥ 24 tumor foci per drug per cell line). Three days after treatment, the bioluminescence of live tumor cells was measured using an AMI optical imager (Spectral Instruments) and dose-response curves were generated. Tumor survival was normalized to day one tumor fluorescence and compared to an untreated control group.
(§3) Several weighted parameters were factored into an overall drug sensitivity score.
(§4) For DSS parameters 1–6, therapeutic windows were calculated by comparing OBSC toxicity and tumor response at the doses where tumor kill passed through the DSS parameter (Table S1 and S3). For DSS parameter 7, the therapeutic window was calculated by comparing the slopes through the tumor EC50 and the OBSC tox EC50. For DSS parameter 8, the therapeutic window was calculated by comparing the areas under tumor kill and OBSC tox curves. Normalized therapeutic window ratios for DSS parameters 1–8 within each drug-tumor-OBSC interaction were calculated in the following manner: within each window, values ranged from +1 to −1, where values approaching +1 signify increasing tumor kill relative to normal tissue toxicity, and values approaching −1 indicate agents where tumors remained highly viable while toxicity to the normal OBSC tissue was elevated. DSS parameters 9–11 were determined based on the behavior of the tumor in response to the drug, as defined above.
(§5) All individually weighed parameters were added together to generate the DSS. Overall DSS from 0 to 100 signify increasing efficacy in tumor kill relative to OBSC toxicity, while scores from 0 to −100 describe scenarios in which tumors thrive more effectively than OBSCs for a given treatment. Dose-response values were calculated via linear interpolation of raw data, not from best-fit curve equations.

[3] = test system: U373WT (wild-type established GBM line); experiment: Drug screening of U373WT tumor foci on OBSCs
Description: as §1, §2, §3, §4, §5

[4] = test system: U373KO (RAD18 knockout of U373WT via CRISPR); experiment: Drug screening of U373KO tumor foci on OBSCs; conditions: U373 KO on OBSCs
Description: as §1, §2, §3, §4, §5

[5] = test system: GBM8 (high-passage patient-derived GBM line); experiment: Drug screening of GBM8 tumor foci on OBSCs
Description: as §1, §2, §3, §4, §5

[6] = test system: MS21 (low-passage patient-derived GBM line); experiment: Drug screening of MS21 tumor foci on OBSCs
Description: as §1, §2, §3, §4, §5

[7] = test system: PDIPG (low-passage pediatric patient-derived line); experiment: Drug screening of PDIPG tumor foci on OBSCs
Description: as §1, §2, §3, §4, §5

[8] = test system: PIS patient tumor tissue (intracranial sarcoma); experiment: Drug screening of uncultured patient tumor tissue PIS on OBSCs; conditions: PIS patient tissue; scale -100 to +100
Description: as §2
To engraft onto OBSCs, the cryopreserved/thawed or fresh brain tumor tissue was filtered through a 100 μm cell strainer. Each 50 mg of tissue was transfected with 1mL mcherry-FLuc Lentivirus at 1.5e7 vg/ml with 1μL polybrene for 4h at 37°C. After incubation, the brain tumor tissue was washed with PBS three times to remove the residual virus and reconstituted in PBS with a final volume of 150 μL. Then the tissue solution was engrafted atop OBSCs at ∼0.5 mg tissue in 3 μL of PBS on each hemisphere of the slice. The OBSC engrafted with patient tumor tissue was incubated at 37°C with 5% CO2 and 95% humidity. The BSM was changed after 24h and subsequently every 3 days. Tumor treatment studies were executed as described above for tumor lines. The viability of the patient tissue was measured by an AMI optical imaging system with the addition of 1.5 mg/mL luciferin underneath the culture insert.
as §3, §4, §5

[9] = area under the dose-response curve, trapezoidal rule
[10] = dose required to kill 10% of the tumor
[11] = dose required to kill 25% of the tumor

SMILES: COc1cc([C@@H]2c3cc4c(cc3[C@@H](O[C@@H]3O[C@@H]5CO[C@@H](C)O[C@H]5[C@H](O)[C@H]3O)[C@H]3COC(=O)[C@H]23)OCO4)cc(OC)c1O [Etoposide]
- EC50 ([1]; Homo sapiens, MB231BR on OBSCs, dose required to kill 50% of the tumor): 100 µM
- EC90 ([1]; Homo sapiens, MB231BR on OBSCs, dose required to kill 90% of the tumor): > 10 µM
- IC50 ([1]; Homo sapiens, MB231Br on OBSCs, dosed day 1, survival via bioluminescence day 4, linear interpolation): 100 µM
- Killing at highest dose ([1]; MB231BR on OBSCs): 7.20E-01 fraction of tumor population killed
- AUC ([1]; MB231BR on OBSCs, area under the dose-response curve, trapezoidal rule): 4.75E+02
- EC10 ([1]; MB231BR on OBSCs, dose required to kill 10% of the tumor): 5.26 µM
- EC25 ([1]; MB231BR on OBSCs, dose required to kill 25% of the tumor): 25 µM
- Slope ([1]; MB231BR on OBSCs, slope through the EC50): -3.00E-03
- Killing at highest dose [2]: 4.40E-01 fraction of tumor population killed
- EC50 ([2]; Homo sapiens, LN-229, dose required to kill 50% of the tumor): > 10 µM
- EC90 ([2]; Homo sapiens, LN-229, dose required to kill 90% of the tumor): > 10 µM
- IC50 ([2]; Homo sapiens, LN-229, dosed day 1, survival via bioluminescence day 4, linear interpolation): > 10 µM
- AUC [2, 9]: 6.48E+02
- EC10 [2, 10]: 3.7 µM
- EC25 [2, 11]: 9.26 µM
- Slope ([2]; slope through the EC50): -1.73E-04
- EC50 ([3]; Homo sapiens, U373 MG, U373 WT on OBSCs, dose required to kill 50% of the tumor): 260 µM
- EC90 ([3]; Homo sapiens, U373 MG, U373 WT on OBSCs, dose required to kill 90% of the tumor): > 10 µM
- IC50 ([3]; Homo sapiens, U373 MG, U373 WT on OBSCs, dosed day 1, survival via bioluminescence day 4, linear interpolation): 260 µM
- Killing at highest dose ([3]; U373 WT on OBSCs): 3.30E-01 fraction of tumor population killed
- AUC ([3]; U373 WT on OBSCs, area under the dose-response curve, trapezoidal rule): 6.12E+02
- EC10 ([3]; U373 WT on OBSCs, dose required to kill 10% of the tumor): 25.6 µM
- EC25 ([3]; U373 WT on OBSCs, dose required to kill 25% of the tumor): 65.4 µM
- Slope ([3]; U373 WT on OBSCs, slope through the EC50): -1.26E-04
- DSS (drug sensitivity score) ([3]; U373 WT, scale -100 to +100, tumor kill relative to OBSC toxicity): −13
- EC50 ([4]; Homo sapiens, U373 MG, dose required to kill 50% of the tumor): 37.8 µM
- EC90 ([4]; Homo sapiens, U373 MG, dose required to kill 90% of the tumor): > 10 µM
- IC50 ([4]; Homo sapiens, U373 MG, dosed day 1, survival via bioluminescence day 4, linear interpolation): 38 µM
- Killing at highest dose [4]: 6.38E-01 fraction of tumor population killed
- AUC [4, 9]: 3.37E+02
- EC10 [4, 10]: 2.42 µM
- EC25 [4, 11]: 6.06 µM
- Slope ([4]; slope through the EC50): -3.13E-03
- Killing at highest dose ([5]; GBM8 on OBSCs): 1.00E+00 fraction of tumor population killed
- AUC ([5]; GBM8 on OBSCs, area under the dose-response curve, trapezoidal rule): 8.40E+00
- EC10 ([5]; GBM8 on OBSCs, dose required to kill 10% of the tumor): 0.558 µM
- EC25 ([5]; GBM8 on OBSCs, dose required to kill 25% of the tumor): 1.74 µM
- EC75 ([5]; GBM8 on OBSCs, dose required to kill 75% of the tumor): 7.47 µM
- Slope ([5]; GBM8 on OBSCs, slope through the EC50): -8.73E-02
- EC50 ([5]; Homo sapiens): 4.6 µM
- EC90 ([5]; Homo sapiens): 9.19 µM
- IC50 ([5]; Homo sapiens): 5.2 µM
- EC50 ([6]; Homo sapiens): > 10 µM
- EC90 ([6]; Homo sapiens): > 10 µM
- Killing at highest dose ([6]; MS21 on OBSCs): -8.00E-02 fraction of tumor population killed
- AUC ([6]; MS21 on OBSCs, area under the dose-response curve, trapezoidal rule): 1.15E+03
- EC50 ([7]; Homo sapiens): 574 µM
- EC90 ([7]; Homo sapiens): > 10 µM
- IC50 ([7]; Homo sapiens): 574 µM
- Killing at highest dose ([7]; PDIPG on OBSCs): 7.50E-01 fraction of tumor population killed
- AUC ([7]; PDIPG on OBSCs, area under the dose-response curve, trapezoidal rule): 6.75E+02
- EC10 ([7]; PDIPG on OBSCs, dose required to kill 10% of the tumor): 222 µM
- EC25 ([7]; PDIPG on OBSCs, dose required to kill 25% of the tumor): 242 µM
- EC75 ([7]; PDIPG on OBSCs, dose required to kill 75% of the tumor): 1000 µM
- Slope ([7]; PDIPG on OBSCs, slope through the EC50): -5.87E-04
- DSS (drug sensitivity score) [8]: 80

— article PMC10313921, “A living ex vivo platform for functional, personalized brain cancer diagnosis” (Cell Reports Medicine, 2023)
